According to BigSolDB 2.1:

COc1cc(Cc2cnc(N)nc2N)cc(OC)c1OC
Conditions | solubility (mole fraction)
in THF, 276.05 K | 0.000608
in THF, 281.81 K | 0.000714
in THF, 287.31 K | 0.000857
in THF, 292.65 K | 0.000987
in THF, 298.08 K | 0.00117
in THF, 303.12 K | 0.00137
in THF, 306.95 K | 0.00155
in THF, 311.69 K | 0.00178
in THF, 316.74 K | 0.00208
in THF, 321.34 K | 0.00244
in THF, 326.91 K | 0.00296
in THF, 333.87 K | 0.00377
in acetone, 276.94 K | 0.000456
in acetone, 282.12 K | 0.00054
in acetone, 288.62 K | 0.000664
in acetone, 292.94 K | 0.00076
in acetone, 297.96 K | 0.00089
in acetone, 304.17 K | 0.00108
in acetone, 309.34 K | 0.00128
in acetone, 314.34 K | 0.00149
in acetone, 319.07 K | 0.00173
in acetone, 323.51 K | 0.00199
in ethanol, 281.15 K | 0.000356
in ethanol, 287.25 K | 0.000461
in ethanol, 292.64 K | 0.000545
in ethanol, 297.95 K | 0.000681
in ethanol, 302.05 K | 0.000833
in ethanol, 307.85 K | 0.00105
in ethanol, 311.35 K | 0.00124
in ethanol, 315.24 K | 0.00151
in ethanol, 318.85 K | 0.00177
in ethanol, 323.95 K | 0.00223
in ethanol, 326.65 K | 0.00255
in ethanol, 330.66 K | 0.00309
in ethanol, 335.25 K | 0.00388
in isopropanol, 277.17 K | 0.000109
in isopropanol, 282.82 K | 0.000156
in isopropanol, 288.28 K | 0.000202
in isopropanol, 293.13 K | 0.000255
in isopropanol, 297.57 K | 0.000322
in isopropanol, 304.04 K | 0.000468
in isopropanol, 309.36 K | 0.000644
in isopropanol, 315.13 K | 0.00091
in isopropanol, 319.53 K | 0.00117
in isopropanol, 324.04 K | 0.00151
in isopropanol, 328.37 K | 0.0019
in isopropanol, 333.64 K | 0.00247
in methanol, 277.02 K | 0.000828
in methanol, 282.85 K | 0.001
in methanol, 288.09 K | 0.0012
in methanol, 293.03 K | 0.00143
in methanol, 298.17 K | 0.00173
in methanol, 304.24 K | 0.00217
in methanol, 309.36 K | 0.00265
in methanol, 314.12 K | 0.0032
in methanol, 319.06 K | 0.00392
in methanol, 323.53 K | 0.00471
in methanol, 328.15 K | 0.00571
in methanol, 333.73 K | 0.0072
in n-butanol, 276.35 K | 0.000157
in n-butanol, 282.63 K | 0.000254
in n-butanol, 287.96 K | 0.000359
in n-butanol, 292.84 K | 0.000473
in n-butanol, 298.46 K | 0.000635
in n-butanol, 303.72 K | 0.000844
in n-butanol, 308.84 K | 0.00106
in n-butanol, 313.36 K | 0.00133
in n-butanol, 318.45 K | 0.00175
in n-butanol, 323.73 K | 0.00235
in n-butanol, 329.21 K | 0.00306
in n-butanol, 333.73 K | 0.00386
in n-propanol, 277.35 K | 0.000278
in n-propanol, 283.63 K | 0.000328
in n-propanol, 288.97 K | 0.000414
in n-propanol, 294.05 K | 0.000531
in n-propanol, 298.93 K | 0.000677
in n-propanol, 303.84 K | 0.000866
in n-propanol, 308.44 K | 0.00109
in n-propanol, 314.54 K | 0.00148
in n-propanol, 319.17 K | 0.00186
in n-propanol, 323.48 K | 0.00231
in n-propanol, 328.57 K | 0.00298
in n-propanol, 334.15 K | 0.00392
in sec-butanol, 276.85 K | 0.000153
in sec-butanol, 283.66 K | 0.000179
in sec-butanol, 290.08 K | 0.0003
in sec-butanol, 294.67 K | 0.000422
in sec-butanol, 298.45 K | 0.000562
in sec-butanol, 303.74 K | 0.000758
in sec-butanol, 308.84 K | 0.00101
in sec-butanol, 313.35 K | 0.00131
in sec-butanol, 318.46 K | 0.00172
in sec-butanol, 323.56 K | 0.00231
in sec-butanol, 328.66 K | 0.0029
in sec-butanol, 333.74 K | 0.00377
